Consider one molecule from US9095534B2, “Intermittent dosing of nitric oxide gas” (SENSORMEDICS CORPORATION, priority 2004, dated 2015).

In one assay the test system is Mycobacteria. The assay is described as follows: Sensitivity of various microorganisms to NO gas damage. The note with it: relative to other microorganisms studied. Format: cell-based. The protocol:
(§1) Additional studies were performed to test the hypothesis that the effect of NO gas in killing microorganisms is related to thiol function. […] This may be due to Mycobacteria having an exceptional thiol, mycothiol, that maintains the redox balance in the cell and protects the cell from nitrosative and oxidative stress. In order to test this hypothesis, sensitivities to NO gas was compared between mycothiol-deficient Mycobacterium smegmatis Mutant MshA to its wild type counterpart, mc^2155 by exposing both strains to 200 ppm of NO gas. MshA is an enzyme needed in mycothiol biosynthesis.

Another assay concerns E. coli. The assay is described as follows: Survival of bacteria under cycled high/low NO gas exposure (cfu/ml). Format: cell-based. To be noted: 160 ppm for 30 minutes then 20 ppm for 3.5 hours, cycled every 4 hours for 24 hours; compared to air; FIG. 9. How it is done:
(§2) The effectiveness of the intermittent nigh dose delivery of […] oxide gas in combating microorganisms was tested and verified. Briefly, the experimental methods were as follows. Inoculums of varying bacteria was prepared to a suspension of 2.5×10^8 cfu/ml, and diluted 1:1000 in sterile normal saline. Three milliliters of the inoculums were used per well in a sterile culture place. Exposure of the inoculums were performed in an exposure chamber, which has been described for example, in Gliafarri, A. et al., “A direct nitric oxide gas delivery system for bacterial and mammalian cell cultures,” Nitric Oxide. 12(3):129-40 (May 2005), which is hereby incorporated by reference as if fully set forth herein. The inoculums were exposed to 160 ppm of NO gas at a flow rate of 2.5 liters per minute for 30 minutes followed by exposure to 20 ppm of NO gas for 3.5 hours. The exposure to high and low concentrations of NO gas was repeatedly cycled every 4 hours for 24 hours. At various times (e.g., 0, 4, 8, and 12 hours), samples were taken and plated to determine the survivability of the bacteria as determined by counting cfu/ml.

The next assay deals with S. aureus (ATCC #25923). The description is as above. Format: cell-based. The note with it: 160 ppm for 30 minutes then 20 ppm for 3.5 hours, cycled every 4 hours for 24 hours; compared to air; FIG. 6. The protocol: as §2
In assay [1] the test system is P. aeruginosa (clinical strain from Cystic Fibrosis). Described as above. The note with it: 160 ppm for 30 minutes then 20 ppm for 3.5 hours, cycled every 4 hours for 24 hours; compared to air; FIG. 8. Format: cell-based. The protocol: as §2
Assay [2] concerns P. aeruginosa (ATCC #27853). Described as above. The note with it: 160 ppm for 30 minutes then 20 ppm for 3.5 hours, cycled every 4 hours for 24 hours; compared to air; FIG. 7. Format: cell-based. How it is done:
as §2

Assay [3] concerns mycothiol-deficient Mycobacterium smegmatis Mutant MshA. The assay is described as follows: Survival of mycothiol-deficient mutant versus wild type on exposure to NO gas. Format: cell-based. The note with it: 200 ppm NO gas; FIG. 10. How it is done: as §1
Assay [4] concerns mycothiol in wild type M. smegmatis. The assay is described as follows: Mycothiol level by HPLC after exposure to NO gas. Format: cell-based, Mycobacterium smegmatis. To be noted: 400 ppm NO gas, compared to exposure to air, FIG. 11. How it is done:
Further experiments were conducted to assay and measure the mycothiol level using HPLC in wild type M. smegmatis after exposure to 400 ppm NO gas and were compared to mycothiol level after exposure to air.

Consider `[N]=O` [nitric oxide], for which, in the assay with Mycobacteria, the “sensitivity of Mycobacteria to NO gas damage” value was “less sensitive to NO gas damage”. Moreover, the “survival of E. coli” value in the assay on E. coli is “effective method of killing the bacteria”. Also, the “survival of S. aureus (ATCC #25923)” value in the assay with S. aureus (ATCC #25923) was “effective method of killing the bacteria”. Further, the “survival of P. aeruginosa (clinical strain from Cystic Fibrosis)” value in assay [1] is listed as “effective method of killing the bacteria”. The “survival of P. aeruginosa (ATCC #27853)” value in assay [2] was “effective method of killing the bacteria”. Moreover, in assay [3], the “sensitivity of MshA mutant to NO gas versus wild type mc^2155” value is “more sensitive to NO gas than its wild type counterpart” and the “time to kill MshA mutant versus wild type mc^2155” value is given as “killed in less time than its wild type counterpart”. Moreover, the “level of mycothiol in wild type M. smegmatis” value in assay [4] was “reduced compared to exposure to air”.
